What is called IC50 is the midpoint of a concentration-inhibition curve. The Cmax is the peak of the concentration-time curve.

The structures appear in SMILES notation. Where two headings read alike, the source gives them in different places.

This is an account of results in patent US10870618B2, “Histone deacetylase inhibitors and uses thereof” (MUSC FOUNDATION FOR RESEARCH DEVELOPMENT, priority 2016, dated 2020).

The target in one data set is HDAC3 (Homo sapiens (Human), UniProt O15379). In words: Recombinant HDAC inhibition assay (HDAC3). Format: biochemical.
HDAC3, sequence (O15379 whole entry): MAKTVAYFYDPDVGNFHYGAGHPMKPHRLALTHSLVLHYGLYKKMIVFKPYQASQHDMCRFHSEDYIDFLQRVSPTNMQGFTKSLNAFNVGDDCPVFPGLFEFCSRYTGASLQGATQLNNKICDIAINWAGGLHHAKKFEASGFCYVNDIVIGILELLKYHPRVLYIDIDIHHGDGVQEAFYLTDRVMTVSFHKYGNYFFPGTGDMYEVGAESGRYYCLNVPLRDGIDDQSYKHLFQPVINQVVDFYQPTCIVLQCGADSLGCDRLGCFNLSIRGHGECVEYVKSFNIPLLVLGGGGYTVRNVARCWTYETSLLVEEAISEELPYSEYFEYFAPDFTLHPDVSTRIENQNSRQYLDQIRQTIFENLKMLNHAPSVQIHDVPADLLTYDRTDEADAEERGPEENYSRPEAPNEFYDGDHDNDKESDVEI
HDAC3, sequence (Q9Y618 395-489 partner): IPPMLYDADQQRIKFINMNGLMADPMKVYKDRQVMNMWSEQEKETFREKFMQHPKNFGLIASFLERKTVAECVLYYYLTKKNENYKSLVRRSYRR
In a further data set the test system is HEK293 Lysate. In words: Hek293 lysate inhibition assay. It is filed as biochemical.
For another data set, the system named is Raw264.7. In words: HMGB-1 secretion by macrophages. It is filed as cell-based. The following applies: LPS plus ATP challenge.
In the next data set the target is HDAC1 (Homo sapiens (Human), UniProt Q13547). The data set can be described thus: Recombinant HDAC inhibition assay (HDAC1). Format: biochemical. As for the experimental part: (§1) Recombinant HDACs 1, 2, and 3 (BPS Biosciences) were diluted to a concentration of 1 nM in HDAC buffer. 10 uL of this solution was added in 96-well format to black U-bottom plates. 10 uL of serially diluted inhibitor was added and a 2 hour pre incubation occurred at room temperature. 50 μM (final) of Acetylated Lysine-Aminomethyl coumarin-BOC in HDAC buffer solution was added and a second 2 hour incubation occurred at room temperature. 5 mg/mL trypsin, 1 μM trichostatin A solution in HDAC buffer was added to quench the reaction. Fluorescence was read at 360 (ex.)/460 (em.) using a Tecan M200 Pro. Data were normalized to control wells containing no inhibitor. IC50's were determined using GraphPad Prism's built in “log(inhibitor) vs. normalized response—Variable slope” function.
HDAC1, sequence (Q13547 whole entry): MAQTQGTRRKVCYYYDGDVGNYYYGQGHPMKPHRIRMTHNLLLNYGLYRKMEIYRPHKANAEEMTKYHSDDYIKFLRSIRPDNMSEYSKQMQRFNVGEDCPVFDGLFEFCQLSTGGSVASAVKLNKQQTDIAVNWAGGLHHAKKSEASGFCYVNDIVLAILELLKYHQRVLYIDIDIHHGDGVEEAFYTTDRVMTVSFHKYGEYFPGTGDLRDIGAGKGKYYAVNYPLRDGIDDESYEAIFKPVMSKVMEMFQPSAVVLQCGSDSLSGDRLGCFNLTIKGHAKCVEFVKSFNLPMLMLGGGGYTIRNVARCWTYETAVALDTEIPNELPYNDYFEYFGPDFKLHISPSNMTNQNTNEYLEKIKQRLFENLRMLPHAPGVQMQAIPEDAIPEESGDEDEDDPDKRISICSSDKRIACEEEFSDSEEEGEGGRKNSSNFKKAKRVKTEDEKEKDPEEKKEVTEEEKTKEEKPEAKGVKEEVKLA

The next data set deals with HDAC2 (Homo sapiens (Human), UniProt Q92769). In words: Recombinant HDAC inhibition assay (HDAC2). It is filed as biochemical. The method, then:
as §1

The test system of the next data set is MV4-11 cells. The data set can be described thus: Western blot analysis of MV4-11 cells. It is filed as cell-based. As for the experimental part: MV4-11 cells were cultured as described above. Cells were plated at 500 k cells/mL×3 mLs in clear, flat bottom 6 well plates. Cells were pre-incubated for 24 hours before addition of inhibitor at various concentrations. […] Cell pellets were lysed with RIPA buffer. RIPA buffer is comprised of 50 mM Tris Base, 150 mM NaCl, 5 mM EDTA, 0.1% (v/v) SDS, 0.5% (v/v) Sodium Deoxycholate, and 1% (v/v) Triton-x-100. After lysing, the suspension is ultra-sonicated and centrifuged at 15000 RPM for 15 minute at 4° C. 80 μL of supernatant was mixed with 40 μL of 15:85 (v/v) 3-mercaptoethanol:LDS solution. The mixture was heated at 90° C. for 15 minutes and stored for loading at −20° C. Prior to loading, the solution was flash thawed at 90° C. Lysates were run on Invitrogen NuPAGE 4-12% Bis-Tris 15 well gels at 170V for approximately 60 minutes in MES buffer. Gels were transferred to […] and ran at 30V for 180 minutes. Primary antibodies, purchased from Santa Cruz Biotechnology, were added in 5% (w/v) milk or 5% (w/v) Bovine Serum Albumin fraction V. The antibody was incubated with cellulose overnight at 4° C. before addition of secondary antibody in 5% (w/v) milk or 5% (w/v) Bovine Serum Albumin. Images were read using a GE ImageQuant LAS 4000. Global lighting adjustments of resulting images were made using Adobe Photoshop CC. Quantification was performed using Image Studio Lite 4.0.
On the technique in general: In western blotting, separated proteins are transferred to a membrane and probed.

Data set [1] relates to Raw246.7 macrophage cells. The data set can be described thus: NO production in activated macrophages. Format: cell-based. The following applies: 100 nM, LPS and LPS+ATP. An excerpt:
Hypo-acetylation of histone H3 and H4 were also reversed with HDAC inhibitor treatments (yellow dash box). d.

For data set [2] the following is noted: reported, cited from earlier work.
Data set [3] has as its system TA97a and TA100 S. typhimurium. In words: mini-Ames test. The following applies: 96-well format. A general note: In the Ames test, an excess of revertant colonies over the control signals mutagenicity.
Text: Test were ran with TA97a (shown) and TA100 S. typhimurium.
Tests were run with TA97a (shown) and TA100 S. typhimurium.
For data set [4] the following is noted: in human, reported; cited from earlier work.

HDAC2, sequence (Q92769 whole entry): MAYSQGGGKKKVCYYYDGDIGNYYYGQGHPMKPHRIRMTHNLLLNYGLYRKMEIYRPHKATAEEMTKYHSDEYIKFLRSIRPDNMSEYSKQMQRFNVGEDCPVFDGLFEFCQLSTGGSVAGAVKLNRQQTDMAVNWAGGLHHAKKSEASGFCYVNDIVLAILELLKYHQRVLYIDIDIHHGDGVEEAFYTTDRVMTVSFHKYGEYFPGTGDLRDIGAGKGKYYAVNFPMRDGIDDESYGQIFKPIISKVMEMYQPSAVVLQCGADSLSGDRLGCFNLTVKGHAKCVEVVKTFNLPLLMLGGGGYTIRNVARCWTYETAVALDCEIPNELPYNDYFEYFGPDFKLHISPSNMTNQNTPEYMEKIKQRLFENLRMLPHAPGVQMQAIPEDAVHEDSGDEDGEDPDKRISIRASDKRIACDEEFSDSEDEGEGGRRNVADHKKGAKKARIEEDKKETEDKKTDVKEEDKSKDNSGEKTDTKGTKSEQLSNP
Experimental for HDAC3: Recombinant HDACs 1, 2, and 3 (BPS Biosciences) were diluted to a concentration of 1 nM in HDAC buffer. 10 uL of this solution was added in 96-well format to black U-bottom plates. 10 uL of serially diluted inhibitor was added and a 2 hour pre incubation occurred at room temperature. 50 μM (final) of Acetylated Lysine-Aminomethyl coumarin-BOC in HDAC buffer solution was added and a second 2 hour incubation occurred at room temperature. 5 mg/mL trypsin, 1 μM trichostatin A solution in HDAC buffer was added to quench the reaction. […] Data were normalized to control wells containing no inhibitor. IC50's were determined using GraphPad Prism's built in “log(inhibitor) vs. normalized response—Variable slope” function.
Experimental for HEK293 Lysate: Hek293 cells were purchased from ATCC and cultured in Dulbecco's modified eagle's medium with glutamax and 10% (v/v) FBS. Cells were plated in 75 cm^2 flasks and incubated at 37° C. and 5% CO2 until −80% confluent. Cells were harvested, washed, and pelleted, lysed before protein concentration was determined using a Tecan M200 spectrophotometer in a BCA assay, and finally stored at −80° C. Upon need, lysate was thawed and diluted to 1 mg/mL of protein concentration with HDAC Buffer. […] The solution was buffered to a pH of 8 and addition of 1 mg/mL BSA was added. 10 μL of this diluted lysate solution was added in 96-well format black U-bottom plates. Serially diluted inhibitor solution was added and a 2 hour pre incubation occurred at 37° C. 50 μM (final) of Acetylated Lysine-Aminomethyl coumarin-BOC in HDAC buffer solution was added and a second 2 hour incubation occurred at 37° C. 5 mg/mL trypsin, 1 μM trichostatin A solution in HDAC buffer was added to quench the reaction. […] Data were normalized to control wells containing no inhibitor. IC50's were determined using GraphPad Prism's built in “log(inhibitor) vs. normalized response—Variable slope” function.

On to `CCCCCCCCCCNNC(=O)c1ccc(CNC(=O)c2ccccc2)cc1` [Compound 2k, N-(4-(2-decylhydrazine-1-carbonyl)benzyl)benzamide], for which the IC50 on HDAC3 and in the data set with HEK293 Lysate was more than 10000 nM throughout.

With `C/C=C/CNNC(=O)c1ccc(CNC(=O)c2ccccc2)cc1` [Compound 2a, (E)-N-(4-(2-(but-2-en-1-yl)hydrazine-1-carbonyl)benzyl)benzamide], the IC50 is 1530 ± 228 nM at HDAC3 and more than 10000 nM in the data set with HEK293 Lysate. The HMGB-1 secretion result with Raw264.7 is listed as “attenuated”.

In the case of `O=C(NCc1ccc(C(=O)NNCC2CCC2)cc1)c1ccccc1` [Compound 2m, N-(4-(2-(cyclobutylmethyl)hydrazine-1-carbonyl)benzyl)benzamide], the IC50 at HDAC3 is 84.4 ± 7.22 nM; in the data set with HEK293 Lysate it was 1880 ± 212 nM.

As to `CCCCNNC(=O)CCc1ccccc1` [Compound 1h, N′-butyl-3-phenylpropanehydrazide], the figures for the IC50 at HDAC3 and with HEK293 Lysate were 1890 ± 227 nM and more than 10000 nM, respectively.

With `CCCCNNC(=O)c1ccc(Oc2ccccc2)cc1` [Compound 1c, N′-butyl-4-phenoxybenzohydrazide], the IC50 was determined as 312 ± 42.8 nM on HDAC3 and 1690 ± 298 nM in the data set on HEK293 Lysate.

In the case of `CCCCNNC(=O)c1ccc(CNC(=O)/C=C/c2ccccc2)cc1` [Compound 3c, N-(4-(2-butylhydrazine-1-carbonyl)benzyl)cinnamamide], the IC50 was determined as 60.2 ± 21 nM on HDAC1 and 70 ± 26.4 nM at HDAC2.

Take `O=C(NCc1ccc(C(=O)NNCC2CC2)cc1)c1ccccc1` [Compound 2g, N-(4-(2-(cyclopropylmethyl)hydrazine-1-carbonyl)benzyl)benzamide]: the IC50 on HDAC3 is 39.93 ± 0.25 nM; in the data set with HEK293 Lysate, 1620 ± 196 nM.

In the case of `CCCCNNC(=O)c1ccc(CNC(=O)c2ccccc2)cc1` [Compound 1l, N-(4-(2-butylhydrazine-1-carbonyl)benzyl)benzamide], the IC50 at HDAC1 stood at 18.9 ± 2.74 nM; on HDAC2 it was 65.2 ± 10.4 nM.

With `CCCCCNNC(=O)c1ccc(CNC(=O)c2ccccc2)cc1` [Compound 2e, N-(4-(2-pentylhydrazine-1-carbonyl)benzyl)benzamide], the IC50 came to 20.2 ± 5.04 nM on HDAC1 and 43.6 ± 33.2 nM on HDAC2.

Consider `CCCCCCCNNC(=O)c1ccc(CNC(=O)c2ccccc2)cc1` [Compound 2h, N-(4-(2-heptylhydrazine-1-carbonyl)benzyl)benzamide], for which the IC50 on HDAC3 came out at 569 ± 84.9 nM; with HEK293 Lysate it was 2160 ± 896 nM.

Consider `CCCCNNC(=O)c1cc2ccccc2o1` [Compound 1b, N′-butylbenzofuran-2-carbohydrazide], for which the IC50 was 1360 ± 197 nM on HDAC3 and 1690 ± 38 nM in the data set with HEK293 Lysate.

Take `CC/C=N/NC(=O)c1ccc(CNC(=O)c2ccccc2)cc1` [Compound 2c, (E)-N-(4-(2-propylidenehydrazine-1-carbonyl)benzyl)benzamide]: the IC50 at HDAC3 and with HEK293 Lysate was more than 10000 nM each time.

`CCCCCCCCNNC(=O)c1ccc(CNC(=O)c2ccccc2)cc1` [Compound 2i, N-(4-(2-octylhydrazine-1-carbonyl)benzyl)benzamide]: the values for the IC50 at HDAC3 and with HEK293 Lysate were 1090 ± 334 nM and more than 10000 nM, respectively.

With `CCCCNNC(=O)c1ccc(OC)cc1` [Compound 1a, N′-butyl-4-methoxybenzohydrazide], the values for the IC50 at HDAC3 and in the data set on HEK293 Lysate were 157 ± 28.6 nM and 727 ± 10.8 nM, respectively.

On to `CCCCNNC(=O)c1cccnc1` [Compound 1d, N′-butylnicotinohydrazide], for which the results for the IC50 at HDAC3 and in the data set on HEK293 Lysate were 1550 ± 430 nM and 4680 ± 909 nM, respectively.

As to `CCCCCNNC(=O)c1ccc(CNC(=O)/C=C/c2ccccc2)cc1` [Compound 3d, N-(4-(2-pentylhydrazine-1-carbonyl)benzyl)cinnamamide], the IC50 on HDAC1 is 47.4 ± 16.8 nM; on HDAC2 it was 99.6 ± 17.4 nM; on HDAC3 it was 32.5 ± 1.15 nM; in the data set on HEK293 Lysate it was 691 ± 54.7 nM.

Take `O=C(CCCCCCC(=O)Nc1ccccc1)NO` [vorinostat, suberanilohydroxamic acid, reference compound]: the “increase in Hsp70 level” value in the data set on MV4-11 cells was “observed”. Further, the “NO production, acute treatment” value in [1] is “only inhibited LPS induced NO production but not ATP driven ones”. The t1/2 in [2] was 0.2 h. In addition, the HMGB-1 secretion result in the data set with Raw264.7 is recorded as “attenuated”.

Consider `CCNNC(=O)c1ccc(CNC(=O)/C=C/c2ccccc2)cc1` [Compound 3a, N-(4-(2-ethylhydrazine-1-carbonyl)benzyl)cinnamamide], for which the IC50 at HDAC1 was 29.5 ± 10.7 nM; at HDAC2, 76.6 ± 9.74 nM; at HDAC3, 19.7 ± 1.41 nM; in the data set on HEK293 Lysate it was 171 ± 34.2 nM.

On to `CCCCNNC(=O)c1cccs1` [Compound 1f, N′-butylthiophene-2-carbohydrazide], for which the IC50 stood at 904 ± 154 nM on HDAC3 and 3460 ± 669 nM in the data set on HEK293 Lysate.

On to `CCCCCCNNC(=O)c1ccc(CNC(=O)c2ccccc2)cc1` [Compound 2j, N-(4-(2-hexylhydrazine-1-carbonyl)benzyl)benzamide], for which the IC50 at HDAC3 worked out at 184 ± 74.5 nM; in the data set with HEK293 Lysate, 550 ± 134 nM.

In the case of `CC(C)NNC(=O)c1ccc(CNC(=O)c2ccccc2)cc1` [Compound 2b, N-(4-(2-isopropylhydrazine-1-carbonyl)benzyl)benzamide], the IC50 on HDAC3 and in the data set on HEK293 Lysate was more than 10000 nM in each case.

As for `CCNNC(=O)c1ccc(CNC(=O)c2ccccc2)cc1` [Compound 2l, N-(4-(2-ethylhydrazine-1-carbonyl)benzyl)benzamide], the figures for the IC50 on HDAC3 and with HEK293 Lysate were 187.3 ± 0.6 nM and 427 ± 110 nM, respectively.

With `CCCCNNC(=O)c1ccco1` [Compound 1g, N′-butylfuran-2-carbohydrazide], the IC50 on HDAC3 was 5000 ± 372 nM; in the data set with HEK293 Lysate, more than 10000 nM.

Regarding `CCCNNC(=O)c1ccc(CNC(=O)c2ccccc2)cc1` [Compound 2d, N-(4-(2-propylhydrazine-1-carbonyl)benzyl)benzamide], the IC50 at HDAC1 is 13.2 ± 2.01 nM; at HDAC2 it was 77.6 ± 9.52 nM.

With `O=C(NCc1ccc(C(=O)NNCCC(F)(F)F)cc1)c1ccccc1` [Compound 2f, N-(4-(2-(3,3,3-trifluoropropyl)hydrazine-1-carbonyl)benzyl)benzamide], the IC50 turned out to be 69.1 ± 0.52 nM at HDAC3 and 1230 ± 136 nM in the data set with HEK293 Lysate.

Turning to `Nc1ccc2cc3ccccc3cc2c1` [2-aminoanthracene], the “mutagenicity (mini-Ames)” value in data set [3] is reported as “Ames positive”.

On to `CCCCc1nc2cc(/C=C/C(=O)NO)ccc2n1CCN(CC)CC` [Pracinostat], for which, in data set [2], the AUCinf is listed as 1,841 ng·h/mL, the Cmax is recorded as 2,632 ng/mL and the t1/2 was 2.4 h.

As for `CCCCNNC(=O)c1cccc2ccccc12` [Compound 1j, N′-butyl-1-naphthohydrazide], the IC50 at HDAC3 and in the data set on HEK293 Lysate was more than 10000 nM in each case.

Take `CCCCCCNNC(=O)c1ccc(CNC(=O)/C=C/c2ccccc2)cc1` [Compound 3e, N-(4-(2-hexylhydrazine-1-carbonyl)benzyl)cinnamamide]: the IC50 on HDAC1 came out at 81.4 ± 12 nM; on HDAC2 it was 139 ± 29.9 nM; at HDAC3, 150 ± 81.6 nM; in the data set with HEK293 Lysate, 1720 ± 139 nM.

Consider `Cc1[nH]c2ccccc2c1CCNCc1ccc(/C=C/C(=O)NO)cc1` [panobinostat], for which, in the data set with MV4-11 cells, the “increase in Hsp70 level” value is recorded as “observed”. Further, the t1/2 in [2] (in rodent) was 2.9 h; in data set [4], 16 h. The Cmax in data set [2] is 116 ng/mL. The “mutagenicity (mini-Ames)” value in data set [3] is recorded as “Ames positive”.

With `CCCCNNC(=O)/C=C/c1ccccc1` [Compound 1i, N′-butylcinnamohydrazide], the IC50 on HDAC3 was determined as 294 ± 32.6 nM; in the data set on HEK293 Lysate, 1440 ± 86.1 nM.
